# Laboratory results taken from US8501816B2, “Antitussive compositions comprising memantine” (Cerecor, Inc., priority 2010, dated 2013).
# “Also recorded” adds a separate entry of the source.
# Tests used:
# [1] = cited from earlier work
# sigma receptor = conditions: cited from earlier work
# [2] = Respiratory parameters during cough challenge; format: in vivo, guinea pig; conditions: 10 mg/kg memantine, p=0.012
# Method: (§1) Using a similar chamber and nebulizer system, animals were treated first with aerosolized peptidase inhibitors (captopril 0.1 μM and thiorphan 0.1 μM, 5 minutes nebulization) to reduce bradykinin degradation and enhance tussive responses evoked by bradykinin (unpublished observations). Animals were then exposed to increasing concentrations of aerosolized bradykinin (0.1-3 mg/mL), again for 5 minute periods. Coughs are counted during this and the subsequent 5 minutes. Pressure changes within the chamber are used to monitor respiratory rate (Biopac Systems Inc, Goleta, Calif.).
# [3] = Pharmacokinetics of memantine after oral or buccal dosing in male beagle dogs (Example 2); format: in vivo, beagle dog; set-up: Cmax/Dose: unit not given beside the values
# Method: The pharmacokinetics of memantine were evaluated after buccal administration in male beagle dogs. Memantine was formulated in water, 3.3 mg/mL sodium hydroxide in water, or 7.5 mg/mL sodium carbonate in water. All dogs received a 0.4 mg/kg dose of memantine. Plasma levels of memantine were determined by LC-MS/MS. Pharmacokinetic parameters were determined for the memantine plasma data.
# For dosing, dogs were anesthetized with an IV injection of ketamine/diazepam, and maintained by isoflurane intubation during the buccal administration. The dosing solution was pipetted into a circular cylinder to concentrate the dosing solution on one area of the mucosa. At just prior to the 15 minute sample time point, the oral cavity was rinsed with 5 mL of water and dried with gauze Immediately after the rinse, the 15 minute sample was collected.
# [4] = as above; format: in vivo, beagle dog; set-up: Cmax/Dose: unit not given beside the values; conditions: for AUC(0-inf) / AUC(0-t) / Cmax / Tmax / half-life: male, beagle, dog, plasma, 0.4 mg/kg
# porcine buccal mucosa = test: Memantine ex vivo buccal permeability; format: in vitro ADME
# [5] = cited from earlier work; remark: listed apart in the source
# [6] = system: freezing behavior during cued fear conditioning; test: Cued fear conditioning in mice; format: in vivo
# Method: The effects of memantine on enhancing cognition were investigated with fear conditioning tests on mice. Specifically, the fear conditioning test exposed mice to a conditioned stimulus (a tone) and an unconditioned stimulus (a mild electric shock). The mice learned to associate the tone with the shock as reflected by freezing. After being adequately conditioned, the mice were administered memantine or a control (vehicle alone). […] Fear Conditioning: Fear conditioning mouse chambers (7''W×7''D×12''H; Coulbourne Instruments, […] Valley, Pa.) were housed in sound attenuating chambers. A camera was mounted on the ceiling of the chamber to capture mouse behavior (FreezeFrame software, Coulbourne Instruments, […] Valley, Pa.); data were analyzed by Freezeview software (Coulbourne Instruments, […] Valley, Pa.). Fear conditioning chambers were calibrated prior to each experiment to ensure that each chamber delivers the same shock intensity. […] Pavlovian fear conditioning refers to the learning of associations between a negative reinforcer (e.g., a mild electric foot shock/s), a novel context (e.g. a context) and/or a specific, neutral, cue (e.g., tone or white noise). To assess contextual and cued (tone) learning and memory, a standardized fear conditioning task developed for the evaluation of memory in rodents was used. Protocol: […] Cue-induced Conditioning Testing: Mice were tested for cued memory 48 hours after training. The cued conditioning test was conducted in an altered context (i.e., a different test chamber). […] Statistical Analysis: Data are represented as the mean and standard error to the mean. Data were analyzed by analysis of variance (ANOVA) followed by Fisher PLSD, or unpaired t-tests, when appropriate to test a planned comparison. An effect was considered significant if p<0.05. Statistical outliers that fell above or below two standard deviations from the mean were removed from the final analysis.
# bradykinin induced cough = test: Bradykinin induced cough in conscious guinea pigs; format: in vivo, guinea pig
# Method: as §1
# [7] = Sedation and side effects observed in the cough studies
# [8] = around pH 6.0; cited from earlier work
# Caco-2 cells = test: Memantine in vitro intestinal permeability (Caco-2 cells); format: in vitro ADME; conditions: pH 5.0 to 10.5
# [9] = treated for dementia, recent review; cited from earlier work
# NMDA receptors = conditions: cited from earlier work
# [10] = MMT 0.4 mg/kg Buccal + 3.3 mg/ml NaOH
# [11] = MMT 0.4 mg/kg Buccal, Control (water)
# [12] = male, beagle, dog, plasma, 0.4 mg/kg, MMT 0.4 mg/kg Buccal + 7.5 mg/ml Na2CO3
# [13] = male, beagle, dog, plasma, 0.4 mg/kg, MMT 0.4 mg/kg Buccal, Control (water)
# [14] = MMT 0.4 mg/kg Buccal + 7.5 mg/ml Na2CO3
# [15] = po, MMT 0.4 mg/kg Oral + 15 mg/kg NH4Cl
# [16] = po, MMT 0.4 mg/kg Oral + 25 mg/kg NH4Cl
# [17] = po, MMT 0.4 mg/kg Oral + 30 mg/kg NH4Cl
# [18] = po, MMT 0.4 mg/kg Oral, ControlAve
smiles,measurement,setting,value
"CC12CC3CC(C)(C1)CC(N)(C3)C2 [Memantine, 3,5-dimethyltricyclo[3.3.1.1^3,7]decan-1-amine]",solubility,[1]; all physiological pHs,> 30 mg/mL
same,Biopharmaceutics Classification System (BCS) class,[1]; highly soluble/highly permeable,class I
same,interaction with receptor,sigma receptor,does not interact
same,Change of breathing frequency induced by bradykinin,[2],small increase in breathing frequency
same,Cmax/Dose,[3]; [10],12.9
same,Cmax/Dose,[3]; [11],6.7
same,AUC(0-inf),[3]; [12],184 ng·h/mL
same,Cmax,[3]; [12],54 ng/mL
same,AUC(0-inf),[3]; [13],125 ng·h/mL
same,AUC(0-t),[3]; [13],119 ng·h/mL
same,Cmax/Dose,[4]; MMT 0.4 mg/kg Oral + 15 mg/kg NH4Cl,6.8
same,Cmax/Dose,[4]; MMT 0.4 mg/kg Oral + 25 mg/kg NH4Cl,5.2
same,Cmax/Dose,[4]; MMT 0.4 mg/kg Oral + 30 mg/kg NH4Cl,5.4
same,Cmax/Dose,"[4]; MMT 0.4 mg/kg Oral, ControlAve",5.2
same,AUC(0-inf),[4]; [10],112 ng·h/mL
same,AUC(0-t),[4]; [10],108 ng·h/mL
same,Cmax,[4]; [10],52 ng/mL
same,Tmax,[4]; [10],0.25 h
same,half-life,[4]; [10],5.2 h
same,AUC(0-t),[4]; [14],179 ng·h/mL
same,Tmax,[4]; [14],0.45 h
same,half-life,[4]; [14],4.5 h
same,Cmax,[4]; [11],23 ng/mL
same,Tmax,[4]; [11],0.75 h
same,half-life,[4]; [11],5.2 h
same,AUC(0-inf),[4]; [15],256 ng·h/mL
same,AUC(0-t),[4]; [15],233 ng·h/mL
same,Cmax,[4]; [15],25 ng/mL
same,Tmax,[4]; [15],2 h
same,half-life,[4]; [15],6.7 h
same,AUC(0-inf),[4]; [16],179 ng·h/mL
same,AUC(0-t),[4]; [16],169 ng·h/mL
same,Cmax,[4]; [16],20 ng/mL
same,Tmax,[4]; [16],1.5 h
same,half-life,[4]; [16],5.5 h
same,AUC(0-inf),[4]; [17],168 ng·h/mL
same,AUC(0-t),[4]; [17],163 ng·h/mL
same,Cmax,[4]; [17],25 ng/mL
same,Tmax,[4]; [17],1.1 h
same,half-life,[4]; [17],4.8 h
same,AUC(0-inf),[4]; [18],210 ng·h/mL
same,AUC(0-t),[4]; [18],190 ng·h/mL
same,Cmax,[4]; [18],22 ng/mL
same,Tmax,[4]; [18],1.7 h
same,half-life,[4]; [18],6.5 h
same,increase in permeability of memantine,porcine buccal mucosa; increase in pH from 5.5 to 9.0,over 100 fold
same,increase in permeability of memantine,porcine buccal mucosa; increase in pH from 8.0 to 9.0,about 3.8 fold
same,plasma memantine concentrations at steady state,[5]; conventional memantine dosage forms,70 to 150 ng/mL
same,Total renal clearance,[5]; healthy volunteers,approximately 170 mL/min/1.70 m^2
same,bound to plasma proteins,[5]; in vivo,about 45%
same,mean volume of distribution,[5]; in vivo,about 10 L/kg
same,bioavailability,"[5]; oral, conventional memantine",> 100%
same,"cue-induced fear conditioning, CS phase, vs vehicle-diphenhydramine 20 mg/kg",[6]; memantine 10 mg/kg IP + diphenhydramine 20 mg/kg,significantly increased cue-induced fear conditioning
same,post-CS freezing vs vehicle-diphenhydramine,[6]; memantine 20 mg/kg plus diphenhydramine,strong trend (p=0.052) toward a significant increase in post-CS freezing
same,Effect on number of coughs evoked by bradykinin aerosols compared to control,"bradykinin induced cough; FIG. 4, p<0.01",significantly reduced the number of coughs evoked by bradykinin
same,"Cumulative coughs, 0.3M bradykinin challenge",bradykinin induced cough; MMT 3 mg/kg i.p. 1 hour pre-bradykinin challenge,20 ± 5
same,"Cumulative coughs, 0.3M bradykinin challenge",bradykinin induced cough; MMT 10 mg/kg i.p. 1 hour pre-bradykinin challenge,1.3±0.8
same,"Cumulative coughs, 0.3M bradykinin challenge","bradykinin induced cough; MMT 10 mg/kg i.p. 1 hour pre-bradykinin challenge, listed as MMT",1.3 ± 0.8
same,"cumulative number of coughs evoked by 0.1-3 mg/mL bradykinin, median","bradykinin induced cough; memantine 10 mg/kg, controls 16 coughs",0.0 coughs
same,Side effects / sedation,[7]; memantine 10 mg/kg intraperitoneally,No side effects; also recorded: induced no sedation; also recorded: no sedating effects
same,Side effects,[7]; memantine 30 mg/kg,slight behavioral changes
same,ionization,[8],completely ionized
same,permeability in Caco-2 cells versus pH,Caco-2 cells,gradually increases with an increase in pH
same,"adverse effects reported, share of those treated",[9],< 10%
same,ED50 of inhibition of ex vivo [3H]MK-801 binding,NMDA receptors,1.8 ± 1.3 mg/kg
